Some test systems named below: ACHN renal; HL-60(TB) leukemia; HOP-62 NSCLC; HCC-2998 colon; EKVX NSCLC; OVCAR-3 ovarian; BT-549 breast; SF-539 CNS; SF-295 CNS; OVCAR-4 ovarian.
Holding throughout (assay): DTP human tumour cell line panel, 48 h

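Dose response: 5 concentrations. Exposure: 48 h. Format: 96-well plates. Endpoint: linear interpolation; highest concentration if not reached. The concentration for 50% growth inhibition is given as GI50. At the TGI there is no net growth.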

What is called GI50 is the concentration at which growth is held to half of that of the control. One may read the TGI as the concentration giving total growth inhibition. A lower TGI goes with greater sensitivity of the cells. As for `CCOC(=O)CC[C@H](N)C(=O)N[C@H](Cc1ccc(N(CCCl)CCCl)cc1)C(=O)OCC`, the GI50 in the assay on ACHN renal is 0.499 µM. Moreover, the TGI in the assay with ACHN renal came out at 2.68 µM; with HL-60(TB) leukemia, 38.9 µM; in the assay with HOP-62 NSCLC, 13.6 µM; in the assay on HCC-2998 colon it was 6.21 µM; with EKVX NSCLC, 19.1 µM; in the assay on OVCAR-3 ovarian, 10.1 µM. Besides, the TGI was over 38 µM with BT-549 breast, 8.83 µM with SF-539 CNS, 23 µM in the assay with SF-295 CNS and 11.2 µM in the assay on OVCAR-4 ovarian.

With `N=C(c1cccs1)C1(N2CCCCC2)CCCCC1`, the TGI with ACHN renal worked out at 30.5 µM; in the assay with HL-60(TB) leukemia, 33.6 µM; in the assay with HOP-62 NSCLC, 47.8 µM; in the assay on HCC-2998 colon, 27.1 µM; in the assay with EKVX NSCLC, 41.3 µM; in the assay on OVCAR-3 ovarian, 30.3 µM. Further, the TGI in the assay with BT-549 breast worked out at 41.9 µM; with SF-295 CNS it was 39.7 µM; in the assay on OVCAR-4 ovarian it was 54.9 µM.

For the molecule `CCOP(=O)(OCC)C(C)(C)OC(=O)NC#N`, the TGI with ACHN renal, with HL-60(TB) leukemia, in the assay with HOP-62 NSCLC, with HCC-2998 colon, in the assay with EKVX NSCLC and in the assay with OVCAR-3 ovarian was over 100 µM in each case. The TGI in the assay on BT-549 breast, in the assay on SF-539 CNS, with SF-295 CNS and in the assay with OVCAR-4 ovarian was over 100 µM throughout.

Turning to `Cc1cc(O)c(C(C)C)cc1N=Cc1ccccc1O`, the TGI turned out to be 23.9 µM with ACHN renal; 1.89 µM in the assay with HL-60(TB) leukemia; 26.1 µM in the assay with HOP-62 NSCLC; 14.7 µM in the assay on HCC-2998 colon; 26.8 µM with EKVX NSCLC; 9.7 µM in the assay on OVCAR-3 ovarian. The TGI amounted to 22 µM in the assay with BT-549 breast, 49.3 µM in the assay on SF-539 CNS, 26.6 µM with SF-295 CNS and 9.66 µM in the assay with OVCAR-4 ovarian.

Turning to `O=[N+]([O-])c1cc(Cl)ccc1S(=O)(=O)N1CCCc2cc(Cl)ccc21`, the total growth inhibition concentration (TGI) with ACHN renal, in the assay on HOP-62 NSCLC, with HCC-2998 colon, in the assay on EKVX NSCLC, with OVCAR-3 ovarian and with BT-549 breast was over 100 µM throughout. Moreover, the TGI with SF-539 CNS, in the assay on SF-295 CNS and in the assay with OVCAR-4 ovarian was over 100 µM in each case.

Take `COc1ccc(C[C@@H]2OC3(C=CC(=O)C=C3)O[C@H]2Cc2ccc(OC)cc2)cc1`: the concentration for total growth inhibition (TGI) in the assay with ACHN renal was determined as 1.16 µM; in the assay with HL-60(TB) leukemia, 5.04 µM; in the assay on HOP-62 NSCLC, 3.59 µM; with HCC-2998 colon it was 2.95 µM; with EKVX NSCLC it was 3.7 µM; in the assay on OVCAR-3 ovarian, 2.31 µM. The TGI worked out at 0.505 µM in the assay with BT-549 breast, 2.63 µM in the assay on SF-539 CNS, 7.89 µM in the assay on SF-295 CNS and 2.14 µM with OVCAR-4 ovarian.

As to `O=C(Oc1cccc(Cl)c1)c1cc2cc(CCl)ccc2oc1=O`, the TGI with ACHN renal is 38.5 µM; with HL-60(TB) leukemia, 82 µM; with HOP-62 NSCLC, over 100 µM; with HCC-2998 colon, 34.4 µM; with EKVX NSCLC it was over 100 µM; in the assay with OVCAR-3 ovarian, over 100 µM. In addition, the total growth inhibition concentration (TGI) with BT-549 breast, in the assay with SF-539 CNS, with SF-295 CNS and in the assay on OVCAR-4 ovarian was over 100 µM throughout.

For `Cc1ncc([N+](=O)[O-])n1CCNC(=O)CCCCCn1ccnc1[N+](=O)[O-]`, the TGI in the assay with ACHN renal, with HL-60(TB) leukemia, with HOP-62 NSCLC, in the assay on HCC-2998 colon, in the assay with OVCAR-3 ovarian and with BT-549 breast was over 100 µM throughout. In addition, the TGI in the assay with SF-539 CNS and in the assay with SF-295 CNS was over 100 µM throughout.

Take `C#CCCCC(=O)N(C(=O)CS(=O)CC)c1ccccc1` (centres undefined): the TGI in the assay on ACHN renal, in the assay with HL-60(TB) leukemia, in the assay with HOP-62 NSCLC, in the assay on HCC-2998 colon, with EKVX NSCLC and with OVCAR-3 ovarian was over 100 µM each time. Further, the TGI in the assay with BT-549 breast, with SF-539 CNS, with SF-295 CNS and in the assay with OVCAR-4 ovarian was over 100 µM in each case.

With `C=C1c2nc3ccccc3n2C=C(c2ccc(OC)cc2)N1c1ccc(OCCN2CCOCC2)cc1`, the TGI in the assay with ACHN renal is over 100 µM; with HL-60(TB) leukemia it was over 34.8 µM; in the assay on HOP-62 NSCLC it was over 100 µM; with HCC-2998 colon it was over 100 µM; with EKVX NSCLC it was over 100 µM; in the assay with OVCAR-3 ovarian, over 100 µM. The TGI in the assay on BT-549 breast, in the assay on SF-539 CNS, in the assay on SF-295 CNS and with OVCAR-4 ovarian was over 100 µM in each case.

In the case of `CC1CN=C(c2ccc(COc3ccc(C4=NCC(C)N4)cc3)cc2)N1` (centres undefined), the total growth inhibition concentration (TGI) with ACHN renal, in the assay with HL-60(TB) leukemia, in the assay with HOP-62 NSCLC, in the assay on HCC-2998 colon, in the assay on EKVX NSCLC and in the assay with OVCAR-3 ovarian was over 100 µM in each case. Also, the concentration for total growth inhibition (TGI) in the assay on BT-549 breast, with SF-539 CNS, in the assay with SF-295 CNS and with OVCAR-4 ovarian was over 100 µM throughout.

As for `CC1(C)C2CCC(N)(C2)C1O` (centres undefined), the TGI with ACHN renal, in the assay with HOP-62 NSCLC, in the assay on HCC-2998 colon, in the assay on EKVX NSCLC, in the assay on OVCAR-3 ovarian and with BT-549 breast was over 100 µM each time. In addition, the TGI in the assay with SF-295 CNS and in the assay on OVCAR-4 ovarian was over 100 µM in each case.

Regarding `CCN(CC)CCC(=O)c1ccc(Oc2ccc(F)cc2)cc1`, the TGI was determined as 32.4 µM with ACHN renal; 56.6 µM with HOP-62 NSCLC; 37.1 µM in the assay with HCC-2998 colon; 39.4 µM in the assay on EKVX NSCLC; 34.5 µM in the assay on OVCAR-3 ovarian; 32.8 µM in the assay with BT-549 breast. Also, the TGI in the assay with SF-539 CNS was 31.8 µM; in the assay on SF-295 CNS, over 100 µM; with OVCAR-4 ovarian it was over 100 µM.

As to `CCCCCCCCCCCCCCCCP(=O)([O-])OCC[N+](C)(C)C`, the TGI in the assay with ACHN renal came out at 31.9 µM; with HL-60(TB) leukemia it was 17.9 µM; in the assay on HOP-62 NSCLC it was 31 µM; in the assay with HCC-2998 colon it was 22 µM; in the assay with EKVX NSCLC, 39.1 µM; with OVCAR-3 ovarian, 31.6 µM. Moreover, the TGI was determined as 22.6 µM with BT-549 breast, 39.8 µM in the assay with SF-539 CNS, 25.8 µM in the assay on SF-295 CNS and 34.7 µM in the assay with OVCAR-4 ovarian.
